The text below walks through data of ChEMBL document CHEMBL1129872, “GENISTEIN AND FLUORINATED ANALOGS SUPPRESS AGONIST-INDUCED AIRWAY SMOOTH MUSCLE CONTRACTION” (Bioorg Med Chem Lett, 1997).

In general, EC50 refers to the midpoint of the concentration-response curve.

Format in all cases: functional
For experiment [1], the species on record is Cavia porcellus. Kind of experiment: The inhibitory activity is expressed as percentage of the maximal contraction induced by 30 mM KCl dependent on extracellular Ca+2 influx at 10e-4 M.
For experiment [2], the species on record is Cavia porcellus. Kind of experiment: The inhibitory activity is expressed as percentage of the maximal contraction induced by Ach 3 mM at 3*10e-4 M.
For experiment [3], the species on record is Cavia porcellus. The experiment can be described thus: The inhibitory activity is expressed as percentage of the maximal contraction induced by KCl.
Experiment [4] is filed under the species Cavia porcellus. Kind of experiment: The inhibitory activity is expressed as percentage of the maximal contraction induced by histamine.
The species entered for experiment [5] is Cavia porcellus. The experiment can be described thus: The -logEC50 value of genistein on ACh-precontracted rings, where EC50 is the concentration causing 50% relaxation.
The species entered for experiment [6] is Cavia porcellus. The experiment can be described thus: The inhibitory activity is expressed as percentage of the maximal contraction induced by 30 mM KCl dependent on extracellular Ca+2 influx at 10e-5 M.

For the compound `O=c1c(-c2ccc(F)cc2F)coc2cc(O)cc(O)c12`, the Max effect in experiment [1] is reported as 41; in experiment [2], 36; in experiment [3], 78; in experiment [4], 73.
For the compound `O=c1c(-c2ccc(F)cc2)coc2cc(O)cc(O)c12`, the Max effect is 36 in experiment [1], 26 in experiment [2], 71 in experiment [3] and 69 in experiment [4].
In experiment [5], `Cn1c(=O)c2[nH]cnc2n(C)c1=O` [AMINOPHYLLINE] had an EC50 of 525 µM.
In experiment [5], `CC(C)(C)NCC(O)c1ccc(O)c(CO)c1` (configuration not stated) [ALBUTEROL] gave an EC50 of 0.0759 µM.
`O=c1c(-c2ccc(O)cc2)coc2cc(O)cc(O)c12` [GENISTEIN] had an EC50 in experiment [5] of 195 µM. The Max effect in experiment [1] was found to be 79; in experiment [6], 35; in experiment [2], 66; in experiment [3] it was 88; in experiment [4] it was 98.
In experiment [2], `O=c1c(-c2ccc(F)c(F)c2)coc2cc(O)cc(O)c12` yielded a Max effect of 33.
